Experiments:
Experiment in all cases: relative viability (nuclei count vs DMSO), 5 days (fraction); higher = more cells survive
[1] = compound: CN1C=C(C2=CC=CC=C21)/C=C\3/C4=C(C=CC=N4)NC3=O + O=C(CCCCCCC(=O)Nc1ccccc1)NO [Vorinostat] (partner 1 µM)
How it was run: (§1)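 Relative viability divides the nuclei count in treated wells by that in vehicle wells. Lung cancer cell lines were seeded in 1536-well plates, dosed by pin tool the next day, and fixed and stained after 5 days in one step with final 0.05% Triton X-100, 1% formaldehyde and 1 ug/ml Hoechst. Dosing was a single drug or a fixed anchor-drug dose plus five library-drug doses (not always all listed) in √10 steps, and values are medians of duplicate plates imaged at 4×.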

[2] = compound: CN1C=C(C2=CC=CC=C21)/C=C\3/C4=C(C=CC=N4)NC3=O + CS(=O)(=O)N1CCN(Cc2cc3nc(-c4cccc5[nH]ncc45)nc(N4CCOCC4)c3s2)CC1 [Pictilisib] (partner 1 µM)
How it was run: as §1

[3] = compound: CN1C=C(C2=CC=CC=C21)/C=C\3/C4=C(C=CC=N4)NC3=O + O=C(c1cc(Cc2n[nH]c(=O)c3ccccc23)ccc1F)N1CCN(C(=O)C2CC2)CC1 [Olaparib] (partner 8 µM)
How it was run: as §1

Trametinib + Tozasertib = compound: CC(=O)Nc1cccc(-n2c(=O)n(C3CC3)c(=O)c3c(Nc4ccc(I)cc4F)n(C)c(=O)c(C)c32)c1 [Trametinib] + Cc1cc(Nc2cc(N3CCN(C)CC3)nc(Sc3ccc(NC(=O)C4CC4)cc3)n2)n[nH]1 [Tozasertib] (partner 0.1 µM)
How it was run: as §1

Cell Line: UMC-11
- relative viability ([1]; first compound 0.02 µM): 0.323
- relative viability ([1]; first compound 0.06325 µM): 0.301
- relative viability ([1]; first compound 0.2 µM): 0.322
- relative viability ([1]; first compound 0.6325 µM): 0.391
- relative viability ([1]; first compound 2 µM): 0.36
- relative viability ([2]; first compound 0.02 µM): 0.742
- relative viability ([2]; first compound 0.06325 µM): 0.553
- relative viability ([2]; first compound 0.2 µM): 0.549
- relative viability ([2]; first compound 0.6325 µM): 0.763
- relative viability ([2]; first compound 2 µM): 0.875
- relative viability ([3]; first compound 0.02 µM): 0.461
- relative viability ([3]; first compound 0.06325 µM): 0.333
- relative viability ([3]; first compound 0.2 µM): 0.356
- relative viability ([3]; first compound 0.6325 µM): 0.381
- relative viability ([3]; first compound 2 µM): 0.47
- relative viability (Trametinib + Tozasertib; first compound 0.0025 µM): 0.199
- relative viability (Trametinib + Tozasertib; first compound 0.007906 µM): 0.195
- relative viability (Trametinib + Tozasertib; first compound 0.07906 µM): 0.19
- relative viability (Trametinib + Tozasertib; first compound 0.25 µM): 0.211

Reference: the supplement of paper PMC10307832
